Assay results taken from patent publication US20260216347A1, “Substituted Imidazo-Based Compounds as Ligand Directed Degraders of IRAK3” (Celgene Corporation, priority 2022, published 2026).

Key:
IRAK3 [1] = biological target: T1, IRAK3 (Homo sapiens, UniProt Q9Y616); test: IRAK3 biochemical binding assay (LanthaScreen Eu Kinase Binding, TR-FRET)
T1 construct: IRAK Endogenous HTRF Degradation Assay; endogenous in cells
T1 sequence (Q9Y616 1-596): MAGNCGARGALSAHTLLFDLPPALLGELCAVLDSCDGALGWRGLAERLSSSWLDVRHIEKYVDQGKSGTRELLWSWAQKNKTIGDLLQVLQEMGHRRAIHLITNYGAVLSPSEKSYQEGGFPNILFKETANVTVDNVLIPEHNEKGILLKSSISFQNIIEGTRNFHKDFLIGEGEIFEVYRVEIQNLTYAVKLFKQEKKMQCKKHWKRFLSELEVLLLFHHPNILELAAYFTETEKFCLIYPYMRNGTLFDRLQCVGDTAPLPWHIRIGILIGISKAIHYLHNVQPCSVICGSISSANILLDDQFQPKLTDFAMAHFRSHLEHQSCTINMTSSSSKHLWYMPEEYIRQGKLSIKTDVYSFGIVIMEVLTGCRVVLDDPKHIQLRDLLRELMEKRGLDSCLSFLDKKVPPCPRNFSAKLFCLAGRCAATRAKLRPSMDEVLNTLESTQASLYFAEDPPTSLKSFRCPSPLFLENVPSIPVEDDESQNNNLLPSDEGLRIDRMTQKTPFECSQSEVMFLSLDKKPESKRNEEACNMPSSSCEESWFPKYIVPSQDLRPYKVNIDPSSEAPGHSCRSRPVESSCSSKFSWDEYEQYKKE
In short: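 TR-FRET tracer-displacement binding with 10 nM IRAK3, 2 nM Eu-anti-GST antibody and 10 nM tracer in 50 mM HEPES pH 7.4, MgCl2, 1 mM EGTA, 0.01% Brij-35. Compounds in 3-fold dilutions, 1 h at room temperature. 665/615 nm ratio gave % inhibition; IC50 and Hill slope from dose-response fit.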

IRAK3 [2] = biological target: T1, IRAK3; test: IRAK endogenous HTRF degradation assay (Total-IRAK3 HTRF kit); assay type: cell-based; conditions: overnight incubation, lowest percentage of protein remaining
In short: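 Cells (~50 k) incubated overnight with 3-fold serial dilutions of compound, then lysed; total IRAK3 read by HTRF (665/615 nm ratio ×10,000), normalized to DMSO as 100%. EC50 from four-parameter logistic fit; Dmax = 100 − Ymin (lowest % protein remaining); DC50 = concentration giving 50% degradation.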

Compound	IC50 (IRAK3 [1])	IRAK3 HTRF degradation Ymin (IRAK3 [2])
Cc1cc(-c2cnc(Nc3cnn(C4CCN(C(=O)CN5CCN(c6ccc7c(c6)C(=O)N(C6CCC(=O)NC6=O)C7=O)CC5)CC4)c3)c3nccn23)c(F)cc1F (centres unmarked) [Compound 24, 5-(4-(2-(4-(4-((5-(2,4-difluoro-5-methylphenyl)imidazo[1,2-a]pyrazin-8-yl)amino)-1H-pyrazol-1-yl)piperidin-1-yl)-2-oxoethyl)piperazin-1-y1)-2-(2,6-dioxopiperidin-3-yl)isoindoline-1,3-dione]	4.6 nM	25%
COc1cc(N2CCN(CCN3CCC(n4cc(Nc5ncc(-c6cc(C)c(F)cc6F)n6ccnc56)cn4)CC3)CC2)ccc1C1CCC(=O)NC1=O (centres unmarked) [Compound 25, 3-(4-(4-(2-(4-(4-((5-(2,4-difluoro-5-methylphenyl)imdazo [1,2-a]pyrazin-8-yl)amino)-1H-pyrazol-1-yl)piperidin-1-yl)ethyl)piperazin-1-yl)-2-methoxyphenyl) piperidine-2,6-dione]	1.7 nM	18%
Cc1cc(-c2cnc(Nc3cnn([C@H]4CCN(CCN5CCN(c6ccc(C7CCC(=O)NC7=O)cc6)CC5)[C@@H](C)C4)c3)c3nccn23)c(F)cc1F (stereo partly drawn) [Compound 26, 3-(4-(4-(2-((2S,4S)-4-(4-((5-(2,4-difluoro-5-methylphenyl)imdazo [1,2-a]pyrazin-8-yl)amino)-1H-pyrazol-1-yl)-2-methylpiperidin-1-yl)ethyl)piperazin-1-yl)phenyl) piperidine-2,6-dione]	1.1 nM	12%
Cc1cc(-c2cnc(Nc3cnn([C@H]4CC[C@@H](CCN5CCN(c6ccc(C7CCC(=O)NC7=O)cc6)C[C@@H]5C)CC4)c3)c3nccn23)c(F)cc1F (stereo partly drawn) [Compound 27, 3-(4-((S)-4-(2-((cis)-4-(4-((5-(2,4-difluoro-5-methylphenyl)imidazo[1,2-a]pyrazin-8-yl)amino)-1H-pyrazol-1-yl)cyclohexyl)ethyl)-3-methylpiperazin-1-yl)phenyl) piperidine-2,6-dione]	7.6 nM	14%
